Legend:
[1] = tested on: ileal microbiota; assay: 16S rRNA gene sequencing, microbiota composition in the ileum; format: in vivo, Ross 308 broiler chickens
[2] = tested on: CD3+ T-cells; assay: CD3 immunohistochemistry of duodenal tissue; format: in vivo, Ross 308 broiler chickens; settings: duodenum, 21 days
Text: The study was undertaken following the guidelines of the ethics committee of the Faculty of Veterinary Medicine and Bioscience Engineering, Ghent University, in accordance with the EU Directive 2010/63/EU. […] They were allotted into 4 groups, with three replicate pens per group each housing 8 chickens. The animals were not vaccinated. Water and commercial starter feed (day 1-12, FARM 1 Mash, Country's Best, […], Belgium) or grower (day 13-21, FARM 2 mash, Country's Best, […], Belgium) were provided ad libitum. […] At day 21, 4 birds per pen were weighted then euthanized by sodium pentobarbital injection for sampling. […] Additionally, ileal and caecal content samples were collected and stored at -20°C for berberine and berberine-derived metabolite quantification. […] Slides for immunohistochemical staining for CD3^+ T-cells were automatically deparaffinized (Shandon […]-Gemini) before antigen retrieval with a pressure cooker in citrate buffer (10 mM, pH 6). Endogenous peroxidase activity was blocked by treating the slides with peroxidase blocking reagent ([…], Dako, Glostrup, Denmark) for 5 min. The presence of T-cells (CD3-positive cell abundance) in duodenal tissue from 21-day old chickens was evaluated using polyclonal primary antibodies against CD3 ([…], Dako, 1:100 dilution, 30 min at room temperature), followed by incubation with a secondary labelled polymer-HRP anti-rabbit antibody (Envision + System-HRP (DAB) ([…]), 30 min at room temperature). Slides were evaluated using the computer-based image analysis program, LAS V4.1. The CD3^+ area percentage in the duodenal tissue was quantified using four representative fields of view per intestinal section (10x objective).

[3] = tested on: caecal microbiota; assay: SCFA quantification (GC-FID) in caecal contents of chickens; format: in vivo, Ross 308 broiler chickens; settings: high dose (1 g berberine/kg feed), 21 days; p = 0.045
Procedure: 250 mg caecal content derived from the in vivo trial were weighed and diluted 1:20 for SCFA analysis. Acetate, propionate and butyrate were quantified using the GC-FID method described by ([De […] et al., 2010]). This method involves the extraction of SCFA from samples with diethyl ether after the addition of 2-methyl hexanoic acid as an internal standard.

[4] = tested on: Blautia spp., A. butyraticus, E. limosum; assay: Growth of bacteria in presence of increasing concentrations of berberine; format: cell-based; settings: 10 μg/mL berberine, M2GSC, anaerobic
Text: Samples were collected and processed as described before.
Supplementary Figure S1 – Growth of bacteria in presence of increasing concentrations of berberine in M2GSC medium (μg/mL) under anaerobic conditions. Strains were further tested for their ability to metabolize berberine (Figure 14). Strains were selected according to OTUs which relative abundance was positively correlated to berberrubine or thalifendine levels, including Blautia spp. and A. butyraticus. E. limosum was included as it was expected to demethylate berberine due to previous literature (Possemiers et al., 2008; Rich et al., 2022). Overnight cultures were 1:1000 diluted in M2GSC medium supplemented with 0, 1, 10 or 100 µg/mL berberine and grown for 24 hours under anaerobic conditions. Absorbance data at 600 nm are expressed as the mean ± standard deviation (n = 3). *: p < 0.05; ***: p < 0.001.

[5] = 0.1 g berberine/kg feed vs normal diet, 21 days, LinDA-normalized abundance
[6] = 0.1 g berberine/kg feed, 21 days
[7] = 0.5 g berberine/kg feed vs normal diet, 21 days, LinDA-normalized abundance
[8] = 0.5 g berberine/kg feed, 21 days
[9] = 1 g berberine/kg feed vs normal diet, 21 days, LinDA-normalized abundance

## COc1ccc2cc3[n+](cc2c1OC)CCc1cc2c(cc1-3)OCO2 [Berberine, Berberine chloride]
[1]; [5]
  L2 FC Cronobacter, 0.1 vs 0: 0.38
  L2 FC Curtobacterium, 0.1 vs 0: -0.49
  L2 FC Faecalibacterium, 0.1 vs 0: 1.89
  L2 FC Family_ Peptostreptococcaceae, 0.1 vs 0: 2.07
  L2 FC Glutamicibacter, 0.1 vs 0: 0.33
  L2 FC Lachnoclostridium 5, 0.1 vs 0: 0.40
  L2 FC Ralstonia, 0.1 vs 0: -0.96
  L2 FC Romboutsia, 0.1 vs 0: 2.23
  L2 FC Serratia, 0.1 vs 0: 0.03
  L2 FC Tyzzerella, 0.1 vs 0: 0.06
  L2 FC uncultured genus of Mollicutes RF39, 0.1 vs 0: 0.63
  L2 FC uncultured genus of Peptostreptococcaceae, 0.1 vs 0: 1.99
[1]; [6]
  Mean relative abundance (%) Cronobacter: 0.00%
  Mean relative abundance (%) Curtobacterium: 0.01%
  Mean relative abundance (%) Faecalibacterium: 0.02%
  Mean relative abundance (%) Family_ Peptostreptococcaceae: 0.37%
  Mean relative abundance (%) Glutamicibacter: 0.01%
  Mean relative abundance (%) Lachnoclostridium 5: 0.00%
  Mean relative abundance (%) Ralstonia: 0.04%
  Mean relative abundance (%) Romboutsia: 0.24%
  Mean relative abundance (%) Serratia: 0.00%
  Mean relative abundance (%) Tyzzerella: 0.00%
  Mean relative abundance (%) uncultured genus of Mollicutes RF39: 0.00%
  Mean relative abundance (%) uncultured genus of Peptostreptococcaceae: 38.50%
  Mean relative abundance of Lachnospiraceae: 2.54%
  Mean relative abundance of Peptostreptococcaceae: 39.1%
  Mean relative abundance of Ruminococcaceae: 1.35%
[1]; 0.1 vs 0 g berberine/kg feed
  L2FC of LinDA-normalized abundance of Lachnospiraceae: -0.49
  L2FC of LinDA-normalized abundance of Peptostreptococcaceae: 1.55
  L2FC of LinDA-normalized abundance of Ruminococcaceae: 0.41
[1]; [7]
  L2 FC Cronobacter, 0.5 vs 0: -0.95
  L2 FC Curtobacterium, 0.5 vs 0: -1.50
  L2 FC Faecalibacterium, 0.5 vs 0: 1.01
  L2 FC Family_ Peptostreptococcaceae, 0.5 vs 0: -0.52
  L2 FC Glutamicibacter, 0.5 vs 0: -0.49
  L2 FC Lachnoclostridium 5, 0.5 vs 0: -0.09
  L2 FC Ralstonia, 0.5 vs 0: -1.95
  L2 FC Romboutsia, 0.5 vs 0: -0.07
  L2 FC Serratia, 0.5 vs 0: -0.80
  L2 FC Tyzzerella, 0.5 vs 0: -0.72
  L2 FC uncultured genus of Mollicutes RF39, 0.5 vs 0: 0.65
  L2 FC uncultured genus of Peptostreptococcaceae, 0.5 vs 0: -0.24
[1]; [8]
  Mean relative abundance (%) Cronobacter: 0.00%
  Mean relative abundance (%) Curtobacterium: 0.02%
  Mean relative abundance (%) Faecalibacterium: 0.02%
  Mean relative abundance (%) Family_ Peptostreptococcaceae: 0.15%
  Mean relative abundance (%) Glutamicibacter: 0.01%
  Mean relative abundance (%) Lachnoclostridium 5: 0.02%
  Mean relative abundance (%) Ralstonia: 0.05%
  Mean relative abundance (%) Romboutsia: 0.13%
  Mean relative abundance (%) Serratia: 0.00%
  Mean relative abundance (%) Tyzzerella: 0.00%
  Mean relative abundance (%) uncultured genus of Mollicutes RF39: 0.02%
  Mean relative abundance (%) uncultured genus of Peptostreptococcaceae: 24.63%
  Mean relative abundance of Lachnospiraceae: 14.77%
  Mean relative abundance of Peptostreptococcaceae: 24.91%
  Mean relative abundance of Ruminococcaceae: 6.11%
[1]; 0.5 vs 0 g berberine/kg feed
  L2FC of LinDA-normalized abundance of Lachnospiraceae: -0.17
  L2FC of LinDA-normalized abundance of Peptostreptococcaceae: -0.50
  L2FC of LinDA-normalized abundance of Ruminococcaceae: 0.24
[1]; [9]
  L2 FC Cronobacter, 1 vs 0: -3.64
  L2 FC Curtobacterium, 1 vs 0: -2.66
  L2 FC Faecalibacterium, 1 vs 0: -2.86
  L2 FC Family_ Peptostreptococcaceae, 1 vs 0: -7.51
  L2 FC Glutamicibacter, 1 vs 0: -2.76
  L2 FC Lachnoclostridium 5, 1 vs 0: -3.40
  L2 FC Ralstonia, 1 vs 0: -5.90
  L2 FC Romboutsia, 1 vs 0: -6.95
  L2 FC Serratia, 1 vs 0: -3.49
  L2 FC Tyzzerella, 1 vs 0: -2.59
  L2 FC uncultured genus of Mollicutes RF39, 1 vs 0: -3.09
  L2 FC uncultured genus of Peptostreptococcaceae, 1 vs 0: -9.51
[1]; 1 g berberine/kg feed, 21 days
  Mean relative abundance (%) Cronobacter: 0.00%
  Mean relative abundance (%) Curtobacterium: 0.03%
  Mean relative abundance (%) Faecalibacterium: 0.01%
  Mean relative abundance (%) Family_ Peptostreptococcaceae: 0.01%
  Mean relative abundance (%) Glutamicibacter: 0.01%
  Mean relative abundance (%) Lachnoclostridium 5: 0.00%
  Mean relative abundance (%) Ralstonia: 0.37%
  Mean relative abundance (%) Romboutsia: 0.01%
  Mean relative abundance (%) Serratia: 0.00%
  Mean relative abundance (%) Tyzzerella: 0.01%
  Mean relative abundance (%) uncultured genus of Mollicutes RF39: 0.00%
  Mean relative abundance (%) uncultured genus of Peptostreptococcaceae: 0.72%
  Mean relative abundance of Lachnospiraceae: 26.87%
  Mean relative abundance of Peptostreptococcaceae: 0.73%
  Mean relative abundance of Ruminococcaceae: 8.08%
[1]; 1 vs 0 g berberine/kg feed
  L2FC of LinDA-normalized abundance of Lachnospiraceae: 2.99
  L2FC of LinDA-normalized abundance of Peptostreptococcaceae: -6.91
  L2FC of LinDA-normalized abundance of Ruminococcaceae: 3.41
[1]; highest concentration (1 g/kg feed), p = 0.045
  Estimated microbial diversity (Shannon index): significantly increased
[1]; lowest concentration (0.1 g/kg feed)
  Abundance of phylum Tenericutes: increase
[2]; 0.1 g berberine/kg feed
  CD3+ area percentage: 8.39 ± 1.05
[2]; 0.5 g berberine/kg feed
  CD3+ area percentage: 8.89 ± 2.09
[2]; 1 g berberine/kg feed
  CD3+ area percentage: 7.11 ± 2.18
[3]
  Propionate in the caecum (GC-FID): significantly increased
[4]
  Growth of the tested bacteria: not significantly affected
